According to patent publication US11434242B2, “Dopamine-b-hydroxylase inhibitors” (BIAL-PORTELA & Cª, S.A., priority 2017, dated 2022):

Target: T1, Dopamine beta hydroxylase (Homo sapiens, UniProt P09172)
T1 construct: 125 μl of plasma; tissue Instituto Português do Sangue Transplantação; host or cells: human plasma from healthy donors
T1 sequence (P09172 40-617 limits assumed): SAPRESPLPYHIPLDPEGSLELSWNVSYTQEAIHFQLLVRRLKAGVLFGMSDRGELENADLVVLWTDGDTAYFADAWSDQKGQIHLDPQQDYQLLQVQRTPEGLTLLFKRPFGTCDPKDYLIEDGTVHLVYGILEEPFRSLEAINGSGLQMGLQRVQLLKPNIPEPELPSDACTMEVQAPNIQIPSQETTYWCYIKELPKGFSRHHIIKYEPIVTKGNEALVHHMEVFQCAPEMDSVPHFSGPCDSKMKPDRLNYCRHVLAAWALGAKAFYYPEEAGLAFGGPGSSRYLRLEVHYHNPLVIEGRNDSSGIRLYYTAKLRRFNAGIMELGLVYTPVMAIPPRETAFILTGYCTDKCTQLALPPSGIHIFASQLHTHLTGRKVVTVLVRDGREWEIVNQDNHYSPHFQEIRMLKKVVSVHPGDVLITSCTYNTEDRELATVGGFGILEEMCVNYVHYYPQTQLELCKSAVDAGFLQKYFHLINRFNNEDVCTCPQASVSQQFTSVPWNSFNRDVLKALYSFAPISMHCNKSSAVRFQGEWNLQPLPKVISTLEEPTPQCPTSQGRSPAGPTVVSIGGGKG
Experiment: Dopamine beta hydroxylase activity in human plasma
Type: biochemical
Conditions: for Plasma (0.1 μM), activity in % of control: inhibitor 0.1 μM; for Plasma (1 μM), activity in % of control: inhibitor 1 μM; for Plasma (0.01 μM), activity in % of control: inhibitor 0.01 μM
Summary of the method: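 Octopamine production from tyramine over 45 min at 37° C, measured photometrically at 330 nm after SCX extraction and periodate oxidation against an octopamine standard curve, indicates plasma DβH activity. Compounds tested at final 10, 100 and 1000 nM in human plasma, pH 5.0 cofactor buffer, 10 min preincubation; results as % of control.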

| Plasma (0.1 μM), activity in % of control | Plasma (1 μM), activity in % of control | Plasma (0.01 μM), activity in % of control | SMILES |
| --- | --- | --- | --- |
| 15.1 % of control |  | 62.1 % of control | Cn1c(CC(=O)NC2CC2)c2n(c1=S)C[C@@]1(c3cc(Br)ccc3F)C[C@@H]21 [Example 357, 2-((5aS,6aR)-5a-(5-bromo-2-fluorophenyl)-2-methyl-3-thioxo-2,3,5,5a,6,6a-hexahydrocyclopropa[3,4]pyrrolo[1,2-c]imidazol-1-yl)-N-cyclopropylacetamide] |
| 3.7 % of control |  | 29.1 % of control | [2H]C([2H])([2H])n1c(CC(=O)NC2CCOCC2)c2n(c1=S)C[C@@]1(c3cc(Br)ccc3F)C[C@@H]21 [Example 463, 2-((5aS,6aR)-5a-(5-bromo-2-fluorophenyl)-2-(methyl-d)-3-thioxo-2,3,5,5a,6,6a-hexahydrocyclopropa[3,4]pyrrolo[1,2-c]imidazol-1-yl)-N-(tetrahydro-2H-pyran-4-yl)acetamide] |
| 18.2 % of control |  | 43.9 % of control | [2H]C([2H])([2H])n1c(CC(=O)N2CCOCC2)c2n(c1=S)C[C@H](c1c(F)ccc(Cl)c1F)C2 [Example 460, (S)-2-(6-(3-chloro-2,6-difluorophenyl)-2-(methyl-d)-3-thioxo-2,5,6,7-tetrahydro-3H-pyrrolo[1,2-c]imidazol-1-yl)-1-morpholinoethan-1-one] |
| 73.7 % of control |  | 95.1 % of control | Cn1c(CC(=O)N2CCOCC2)c2n(c1=S)C[C@@H](c1c(F)cccc1F)C2 [Example 445, (R)-2-(6-(2,6-difluorophenyl)-2-methyl-3-thioxo-2,5,6,7-tetrahydro-3H-pyrrolo[1,2-c]imidazol-1-yl)-1-morpholinoethan-1-one] |
| 14.7 % of control |  | 77.0 % of control | CN(C(=O)Cc1[nH]c(=S)n2c1C[C@@H](c1c(F)ccc(Br)c1F)C2)C1COC1 [Example 408, (S)-2-(6-(3-bromo-2,6-difluorophenyl)-3-thioxo-2,5,6,7-tetrahydro-3H-pyrrolo[1,2-c]imidazol-1-yl)-N-methyl-N-(oxetan-3-yl)acetamide] |
| 60.5 % of control |  | 87.7 % of control | Cn1c(CC(=O)N[C@H]2CCOC2)c2n(c1=S)C[C@H](c1c(F)ccc(F)c1F)C2 [Example 417, 2-((S)-2-methyl-3-thioxo-6-(2,3,6-trifluorophenyl)-2,5,6,7-tetrahydro-3H-pyrrolo[1,2-c]imidazol-1-yl)-N—((S)-tetrahydrofuran-3-yl)acetamide] |
| 13.5 % of control |  | 65.6 % of control | Cn1c(CC(=O)N[C@H]2CCOC2)c2n(c1=S)C[C@H](c1c(F)ccc(Br)c1F)C2 [Example 459, 2-((S)-6-(3-bromo-2,6-difluorophenyl)-2-methyl-3-thioxo-2,5,6,7-tetrahydro-3H-pyrrolo[1,2-c]imidazol-1-yl)-N—((S)-tetrahydrofuran-3-yl)acetamide] |
| 13.2 % of control |  | 62.3 % of control | O=C(Cc1[nH]c(=S)n2c1[C@@H]1C[C@]1(c1c(F)ccc(Cl)c1F)C2)N[C@@H]1CCOC1 [Example 392, 2-((5aS,6aR)-5a-(3-chloro-2,6-difluorophenyl)-3-thioxo-2,3,5,5a,6,6a-hexahydrocyclopropa[3,4]pyrrolo[1,2-c]imidazol-1-yl)-N—((R)-tetrahydrofuran-3-yl)acetamide] |
| 63.1 % of control |  | 104.4 % of control | O=C(Cc1[nH]c(=S)n2c1C[C@H](c1c(F)ccc(F)c1F)C2)N[C@@H]1CCOC1 [Example 368, 2-((R)-6-(2,3,6-trifluorophenyl)-3-thioxo-2,5,6,7-tetrahydro-3H-pyrrolo[1,2-c]imidazol-1-yl)-N—((R)-tetrahydrofuran-3-yl)acetamide] |

The next lines start with the compound.

| SMILES | Plasma (0.1 μM), activity in % of control | Plasma (1 μM), activity in % of control | Plasma (0.01 μM), activity in % of control |
| --- | --- | --- | --- |
| CCOC(=O)Cc1[nH]c(=S)n2c1C[C@H](c1c(F)ccc(Br)c1F)C2 [Example 60, Ethyl (R)-2-(6-(3-bromo-2,6-difluorophenyl)-3-thioxo-2,5,6,7-tetrahydro-3H-pyrrolo[1,2-c]imidazol-1-yl)acetate] | 68.9 % of control | 14.0 % of control |  |
| O=C(Cc1[nH]c(=S)n2c1C[C@@H](c1c(F)ccc(Br)c1F)C2)N[C@@H]1CCOC1 [Example 90, 2-((S)-6-(3-bromo-2,6-difluorophenyl)-3-thioxo-2,5,6,7-tetrahydro-3H-pyrrolo[1,2-c]imidazol-1-yl)-N—((R)-tetrahydrofuran-3-yl)acetamide] | 9.9 % of control | 0.4 % of control |  |
| NC(=O)C1CCN(C(=O)Cc2[nH]c(=S)n3c2C[C@H](c2c(F)c(F)cc(F)c2F)C3)CC1 [Example 86, (R)-1-(2-(6-(2,3,5,6-tetrafluorophenyl)-3-thioxo-2,5,6,7-tetrahydro-3H-pyrrolo[1,2-c]imidazol-1-yl)acetyl)piperidine-4-carboxamide] | 70.9 % of control | 14.7 % of control |  |
| Cn1c(CC(=O)Nc2nccs2)c2n(c1=S)C[C@@H](c1c(F)c(F)cc(F)c1F)C2 [Example 340, (R)-2-(2-methyl-6-(2,3,5,6-tetrafluorophenyl)-3-thioxo-2,5,6,7-tetrahydro-3H-pyrrolo[1,2-c]imidazol-1-yl)-N-(thiazol-2-yl)acetamide] | 27.0 % of control |  | 87.6 % of control |
| Cn1c(C2(C(=O)NCCS(C)(=O)=O)CC2)c2n(c1=S)C[C@H](c1c(F)ccc(Br)c1F)C2 [Example 238, (S)-1-(6-(3-bromo-2,6-difluorophenyl)-2-methyl-3-thioxo-2,5,6,7-tetrahydro-3H-pyrrolo[1,2-c]imidazol-1-yl)-N-(2-(methylsulfonyl)ethyl)cyclopropane-1-carboxamide] | 88.5 % of control |  | 93.4 % of control |
| CCOC(=O)C(Cc1[nH]c(=S)n2c1C[C@H](c1c(F)c(F)cc(F)c1F)C2)C(=O)OCC [Example 200, (R)-diethyl 2-((6-(2,3,5,6-tetrafluorophenyl)-3-thioxo-3,5,6,7-tetrahydro-2H-pyrrolo[1,2-c]imidazol-1-yl)methyl)malonate] | 66.4 % of control |  | 85.2 % of control |
| N#CCNC(=O)Cc1[nH]c(=S)n2c1[C@@H]1C[C@]1(c1cc(Br)ccc1F)C2 [Example 144, 2-((5aS,6aR)-5a-(5-bromo-2-fluorophenyl)-3-thioxo-2,3,5,5a,6,6a-hexahydrocyclopropa[3,4]pyrrolo[1,2-c]imidazol-1-yl)-N-(cyanomethyl)acetamide] | 14.7 % of control | 0.1 % of control |  |
| Cn1c(CCC(=O)N[C@@H]2CCOC2)c2n(c1=S)C[C@@H](c1c(F)ccc(F)c1F)C2 [Example 265, 3-((R)-2-methyl-3-thioxo-6-(2,3,6-trifluorophenyl)-2,5,6,7-tetrahydro-3H-pyrrolo[1,2-c]imidazol-1-yl)-N—((R)-tetrahydrofuran-3-yl)propanamide] | 70.6 % of control |  | 94.9 % of control |
| Cl.Cn1c(CC(=O)NCc2ccccn2)c2n(c1=S)C[C@@]1(c3cc(Cl)ccc3F)C[C@@H]21 [Example 332, 2-((5aS,6aR)-5a-(5-chloro-2-fluorophenyl)-2-methyl-3-thioxo-2,3,5,5a,6,6a-hexahydrocyclopropa[3,4]pyrrolo[1,2-c]imidazol-1-yl)-N-(pyridin-2-ylmethyl)acetamide Hydrochloride] | 2.7 % of control |  | 32.8 % of control |
| Cn1c(CC(=O)N[C@@H]2CCCOC2)c2n(c1=S)C[C@H](c1c(F)ccc(Cl)c1F)C2 [Example 327, 2-((S)-6-(3-chloro-2,6-difluorophenyl)-2-methyl-3-thioxo-2,5,6,7-tetrahydro-3H-pyrrolo[1,2-c]imidazol-1-yl)-N—((R)-tetrahydro-2H-pyran-3-yl)acetamide] | 7.0 % of control |  | 49.9 % of control |
| Cn1c(CC(=O)Nc2cnoc2)c2n(c1=S)C[C@@H](c1c(F)ccc(F)c1F)C2 [Example 347, (R)—N-(isoxazol-4-yl)-2-(2-methyl-3-thioxo-6-(2,3,6-trifluorophenyl)-2,5,6,7-tetrahydro-3H-pyrrolo[1,2-c]imidazol-1-yl)acetamide] | 17.7 % of control |  | 79.0 % of control |
